In ChEMBL document CHEMBL1151288, “Dichlorinated pulvinic acid derivative from a Malaysian Scleroderma sp” (J Nat Prod, 2005):

Columns and labels:
Bacillus subtilis = test: Antibacterial activity against Bacillus subtilis at 40 ug; format: functional; settings: read-out: IZ
P388 = test: Cytotoxicity against mouse P388 cells; format: functional, cell-based

COC(=O)/C(=C1/OC(=O)C(c2ccc(OC)cc2)=C1O)c1ccc(OC)c(Cl)c1
zone of inhibition at 40 µg/disc (Bacillus subtilis): 7 mm

COC(=O)/C(=C1/OC(O)=C(c2ccc(OC)cc2)C1=O)c1ccc(OC)cc1
zone of inhibition at 40 µg/disc (Bacillus subtilis): 8 mm

COC(=O)/C(=C1/OC(=O)C(c2ccc(OC)cc2)=C1O)c1cc(Cl)c(OC)c(Cl)c1
IC50 (P388): 20.6 µM
zone of inhibition at 40 µg/disc (Bacillus subtilis): 4 mm
